From patent publication US20130302442A1, “METHODS OF USING (4S,4AS,5AR,12AS)-4-DIMETHYLAMINO-3,10,12,12A-TETRAHYDROXY-7-[(METHOXY(METHYL)AMINO)-METHYL]-1,11-DIOXO-1,4,4A,5,5A,6,11,12A-OCTAHYDRO-NAPHTHACENE-2-CARBOXYLIC ACID AMIDE” (priority 2012, published 2013)
Values after ≈ are worked out from the molar mass of the structure shown. Where two headings read alike, the source gives them in different places.

Legend:
S. epidermidis = assay: In vitro MIC testing, antibacterial spectrum of activity; type: cell-based, Staphylococcus epidermidis; conditions: for MIC50 / MIC90: Staphylococcus epidermidis
S. aureus = assay: as above; type: cell-based, Staphylococcus aureus; conditions: for MIC50 / MIC90: Staphylococcus aureus
[1] = tested on: hospital-associated methicillin-resistant S. aureus (MRSA-HA); assay: In vitro MIC against isolates of MRSA-HA; type: cell-based, Staphylococcus aureus; conditions: for MIC50 / MIC90: Staphylococcus aureus
S. haemolyticus = assay: In vitro MIC testing, antibacterial spectrum of activity; type: cell-based; conditions: for MIC50 / MIC90: Staphylococcus haemolyticus
[2] = tested on: methicillin-sensitive S. aureus (MSSA); assay: In vitro MIC against isolates of MSSA; type: cell-based, Staphylococcus aureus; conditions: for MIC Range / MIC50 / MIC90: MSSA (34 isolates); for MIC50 / MIC90: Staphylococcus aureus; for MIC90: read-out: MIC90
[3] = tested on: community-acquired methicillin-resistant S. aureus (MRSA-CA); assay: In vitro MIC against isolates of MRSA-CA; type: cell-based, Staphylococcus aureus; conditions: for MIC50 / MIC90: Staphylococcus aureus
[4] = tested on: Streptococcus spp. [Group C]; assay: In vitro MIC testing, antibacterial spectrum of activity; type: cell-based
S. pneumoniae = assay: as above; type: cell-based, Streptococcus pneumoniae
S. agalactiae = assay: as above; type: cell-based
S. pyogenes = assay: as above; type: cell-based
P. acnes = assay: as above; type: cell-based, Propionibacterium acnes
E. faecium = assay: as above; type: cell-based; conditions: for MIC50 / MIC90: Enterococcus faecium
E. faecalis = assay: as above; type: cell-based; conditions: for MIC50 / MIC90: Enterococcus faecalis
K. pneumoniae = assay: as above; type: cell-based; conditions: K. pneumoniae (31 isolates); for MIC50 / MIC90: Klebsiella pneumoniae
Salmonella Spp. = assay: as above; type: cell-based; conditions: for MIC50 / MIC90: Salmonella
E. coli = assay: as above; type: cell-based; conditions: Escherichia coli
P. aeruginosa = assay: as above; type: cell-based; conditions: P. aeruginosa (11 isolates); for MIC50 / MIC90: Pseudomonas aeruginosa
E. cloacae = assay: as above; type: cell-based; conditions: Enterobacter cloacae; E. cloacae (30 isolates)
P. mirabilis = assay: as above; type: cell-based; conditions: Proteus mirabilis; P. mirabilis (30 isolates)
[5] = S. epidermidis [MSSE] (31 isolates)
[6] = S. epidermidis [MRSE] (32 isolates), read-out: MIC50
[7] = S. epidermidis [MRSE] (32 isolates), read-out: MIC90
[8] = S. epidermidis [MSSE] (31 isolates), read-out: MIC50
[9] = S. epidermidis [MSSE] (31 isolates), read-out: MIC90
[10] = MRSA, S. aureus [MRSA] (31 isolates), read-out: MIC50
[11] = MRSA, S. aureus [MRSA] (31 isolates), read-out: MIC90
[12] = MSSA, S. aureus [MSSA] (32 isolates), read-out: MIC50
[13] = MSSA, S. aureus [MSSA] (32 isolates), read-out: MIC90
[14] = S. haemolyticus (33 isolates), read-out: MIC50
[15] = S. haemolyticus (33 isolates), read-out: MIC90
[16] = Streptococcus spp. [Group C] (30 isolates)
[17] = S. pneumoniae [PSSP] (32 isolates)

## Cc1onc(-c2ccccc2)c1C(=O)N[C@@H]1C(=O)N2[C@@H]1SC(C)(C)[C@@H]2C(=O)O [Oxacillin]
S. epidermidis; [5]
  MIC Range: 0.06 to 0.25 µg/mL
S. epidermidis; [6]
  MIC50: 32 µg/mL (≈ 79.7 µM)
S. epidermidis; [7]
  MIC90: > 32 µg/mL
S. epidermidis; [8]
  MIC50: 0.12 µg/mL (≈ 0.299 µM)
S. epidermidis; [9]
  MIC90: 0.25 µg/mL (≈ 0.623 µM)
S. aureus; S. aureus [MSSA] (32 isolates)
  MIC Range: 0.12 to 1 µg/mL
S. aureus; [10]
  MIC50: > 32 µg/mL
S. aureus; [11]
  MIC90: > 32 µg/mL
S. aureus; [12]
  MIC50: 0.5 µg/mL (≈ 1.25 µM)
S. aureus; [13]
  MIC90: 1 µg/mL (≈ 2.49 µM)
[1]; MRSA-HA (33 isolates)
  MIC50: 32 µg/mL (≈ 79.7 µM)
  MIC90: > 32 µg/mL
S. haemolyticus; [14]
  MIC50: 0.25 µg/mL (≈ 0.623 µM)
S. haemolyticus; [15]
  MIC90: > 32 µg/mL
[2]
  MIC Range: 0.25 to 2 µg/mL
  MIC50: 0.25 µg/mL (≈ 0.623 µM)
  MIC90: 0.5 µg/mL (≈ 1.25 µM)
[3]; MRSA-CA (33 isolates)
  MIC50: 32 µg/mL (≈ 79.7 µM)
  MIC90: > 32 µg/mL

## Penicillin
[4]; [16]
  MIC50: ≦0.015 μg/mL
  MIC90: ≦0.015 μg/mL
  MIC Range: ≦0.015-0.03 μg/mL
S. pneumoniae; [17]
  MIC50: ≦0.015 μg/mL
  MIC90: 0.06 µg/mL
  MIC Range: ≦0.015-0.12 μg/mL
S. agalactiae; S. agalactiae (31 isolates)
  MIC50: 0.03 µg/mL
  MIC90: 1 µg/mL
  MIC Range: ≦0.015-2 μg/mL
S. pyogenes; S. pyogenes (32 isolates)
  MIC50: ≦0.015 μg/mL
  MIC90: ≦0.015 μg/mL
  MIC Range: ≦0.015-0.25 μg/mL
P. acnes
  MIC Range: 0.03 to 0.5 µg/mL

## CN[C@H](CC(C)C)C(=O)N[C@H]1C(=O)N[C@@H](CC(N)=O)C(=O)N[C@H]2C(=O)N[C@H]3C(=O)N[C@H](C(=O)N[C@H](C(=O)O)c4cc(O)cc(O)c4-c4cc3ccc4O)[C@H](O)c3ccc(c(Cl)c3)Oc3cc2cc(c3O[C@@H]2O[C@H](CO)[C@@H](O)[C@H](O)[C@H]2O[C@H]2C[C@](C)(N)[C@H](O)[C@H](C)O2)Oc2ccc(cc2Cl)[C@H]1O [Vancomycin]
S. epidermidis; S. epidermidis [MRSE] (32 isolates)
  MIC Range: 1 to 2 µg/mL
S. epidermidis; [5]
  MIC Range: 1 to 2 µg/mL
S. epidermidis
  MIC50: 2 µg/mL (≈ 1.38 µM)
  MIC90: 2 µg/mL (≈ 1.38 µM)
S. epidermidis; MRSE
  MIC50: 2 µg/mL (≈ 1.38 µM)
  MIC90: 2 µg/mL (≈ 1.38 µM)
[4]; Streptococcus
  MIC50: 0.25 µg/mL (≈ 0.173 µM)
  MIC90: 0.5 µg/mL (≈ 0.345 µM)
[4]; [16]
  MIC Range: 0.25 to 1 µg/mL
S. aureus; S. aureus [MRSA] (31 isolates)
  MIC Range: 0.5 to 2 µg/mL
S. aureus; S. aureus [MSSA] (32 isolates)
  MIC Range: 0.5 to 1 µg/mL
S. aureus; MRSA
  MIC50: 1 µg/mL (≈ 0.69 µM)
  MIC90: 1 µg/mL (≈ 0.69 µM)
S. aureus; MSSA
  MIC50: 1 µg/mL (≈ 0.69 µM)
  MIC90: 1 µg/mL (≈ 0.69 µM)
S. haemolyticus; S. haemolyticus (33 isolates)
  MIC Range: 0.5 to 2 µg/mL
S. haemolyticus
  MIC50: 1 µg/mL (≈ 0.69 µM)
  MIC90: 1 µg/mL (≈ 0.69 µM)
S. pneumoniae; [17]
  MIC Range: 0.06 to 0.25 µg/mL
S. pneumoniae; Streptococcus pneumoniae
  MIC50: 0.25 µg/mL (≈ 0.173 µM)
  MIC90: 0.25 µg/mL (≈ 0.173 µM)
S. agalactiae; S. agalactiae (31 isolates)
  MIC Range: 0.25 to 2 µg/mL
S. agalactiae; Streptococcus agalactiae
  MIC50: 0.5 µg/mL (≈ 0.345 µM)
  MIC90: 0.5 µg/mL (≈ 0.345 µM)
S. pyogenes; S. pyogenes (32 isolates)
  MIC Range: 0.25 to 0.5 µg/mL
S. pyogenes; Streptococcus pyogenes
  MIC50: 0.25 µg/mL (≈ 0.173 µM)
  MIC90: 0.25 µg/mL (≈ 0.173 µM)
P. acnes
  MIC Range: 0.5-0.5 μg/mL
E. faecium; E. faecium [VRE] (30 isolates)
  MIC Range: >64 µg/mL
E. faecium; E. faecium [VSE] (32 isolates)
  MIC Range: 0.25 to 2 µg/mL
E. faecium
  MIC50: 1 µg/mL (≈ 0.69 µM)
  MIC90: 1 µg/mL (≈ 0.69 µM)
E. faecium; VRE
  MIC50: > 64 µg/mL
  MIC90: > 64 µg/mL
E. faecalis; E. faecalis [VSE] (31 isolates)
  MIC Range: 0.5 to 4 µg/mL
E. faecalis
  MIC50: 1 µg/mL (≈ 0.69 µM)
  MIC90: 2 µg/mL (≈ 1.38 µM)

## CC(=O)NC[C@H]1CN(c2ccc(N3CCOCC3)c(F)c2)C(=O)O1 [Linezolid]
[1]; MRSA-HA (33 isolates)
  MIC Range: 2 to 4 µg/mL
  MIC50: 2 µg/mL (≈ 5.93 µM)
  MIC90: 2 µg/mL (≈ 5.93 µM)
[1]; all MRSA-HA organisms
  susceptibility of the test organisms: susceptible
[2]
  MIC Range: 2 to 4 µg/mL
  MIC50: 2 µg/mL (≈ 5.93 µM)
  MIC90: 4 µg/mL (≈ 11.9 µM)
[2]; all MSSA test organisms
  susceptibility of the test organisms: susceptible
[3]; MRSA-CA (33 isolates)
  MIC Range: 2 to 4 µg/mL
  MIC50: 2 µg/mL (≈ 5.93 µM)
  MIC90: 4 µg/mL (≈ 11.9 µM)
[3]; all MRSA-CA test organisms
  susceptibility of the test organisms: susceptible

## CC[C@H]1OC(=O)[C@H](C)[C@@H](O[C@H]2C[C@@](C)(OC)[C@@H](O)[C@H](C)O2)[C@H](C)[C@@H](O[C@@H]2O[C@H](C)C[C@H](N(C)C)[C@H]2O)[C@](C)(O)C[C@@H](C)C(=O)[C@H](C)[C@@H](O)[C@]1(C)O [Erythromycin]
S. epidermidis; [6]
  MIC50: > 32 µg/mL
S. epidermidis; [7]
  MIC90: > 32 µg/mL
S. epidermidis; [8]
  MIC50: 0.25 µg/mL (≈ 0.341 µM)
S. epidermidis; [9]
  MIC90: > 32 µg/mL
[4]; Streptococcus spp. [Group C] (30 isolates), read-out: MIC50
  MIC50: 0.06 µg/mL (≈ 0.0818 µM)
[4]; Streptococcus spp. [Group C] (30 isolates), read-out: MIC90
  MIC90: 4 µg/mL (≈ 5.45 µM)
S. aureus; [10]
  MIC50: > 32 µg/mL
S. aureus; [11]
  MIC90: > 32 µg/mL
S. aureus; [12]
  MIC50: 0.5 µg/mL (≈ 0.681 µM)
S. aureus; [13]
  MIC90: > 32 µg/mL
S. haemolyticus; [14]
  MIC50: > 32 µg/mL
S. haemolyticus; [15]
  MIC90: > 32 µg/mL
S. pneumoniae; Streptococcus pneumoniae, S. pneumoniae [PSSP] (32 isolates), read-out: MIC50
  MIC50: 0.03 µg/mL (≈ 0.0409 µM)
S. pneumoniae; Streptococcus pneumoniae, S. pneumoniae [PSSP] (32 isolates), read-out: MIC90
  MIC90: 2 µg/mL (≈ 2.73 µM)
S. agalactiae; Streptococcus agalactiae
  MIC50: 0.06 µg/mL (≈ 0.0818 µM)
  MIC90: > 16 µg/mL
S. pyogenes; Streptococcus pyogenes
  MIC50: 0.06 µg/mL (≈ 0.0818 µM)
  MIC90: 0.06 µg/mL (≈ 0.0818 µM)
P. acnes; Cutibacterium acnes, read-out: MIC50
  MIC50: ≤ 0.06 µg/mL
P. acnes; Cutibacterium acnes, read-out: MIC90
  MIC90: > 128 µg/mL
E. faecium
  MIC50: > 32 µg/mL
  MIC90: > 32 µg/mL
E. faecium; VRE
  MIC50: > 32 µg/mL
  MIC90: > 32 µg/mL
E. faecalis
  MIC50: > 32 µg/mL
  MIC90: > 32 µg/mL

## CC(=O)OCC1=C(C(=O)O)N2C(=O)[C@@H](NC(=O)Cc3cccs3)[C@H]2SC1 [Cephalothin]
K. pneumoniae
  MIC Range: >64 µg/mL
  MIC50: > 64 µg/mL
  MIC90: > 64 µg/mL
Salmonella Spp.
  MIC50: 2 µg/mL (≈ 5.04 µM)
  MIC90: 16 µg/mL (≈ 40.4 µM)
E. coli
  MIC90: > 64 µg/mL
P. aeruginosa
  MIC Range: >64 µg/mL
  MIC50: > 64 µg/mL
  MIC90: > 64 µg/mL
E. cloacae
  MIC50: > 64 µg/mL
  MIC90: > 64 µg/mL
P. mirabilis
  MIC50: 8 µg/mL (≈ 20.2 µM)
  MIC90: > 64 µg/mL

## O=C(O)c1cn(C2CC2)c2cc(N3CCNCC3)c(F)cc2c1=O [Ciprofloxacin]
K. pneumoniae
  MIC50: > 2 µg/mL
  MIC90: > 2 µg/mL
Salmonella Spp.
  MIC50: 0.015 µg/mL (≈ 0.0453 µM)
  MIC90: 0.03 µg/mL (≈ 0.0905 µM)
Salmonella Spp.; Salmonella Spp. (35 isolates)
  MIC Range: 0.015 to 0.25 µg/mL
E. coli
  MIC50: 0.015 µg/mL (≈ 0.0453 µM)
  MIC90: > 2 µg/mL
P. aeruginosa
  MIC50: > 2 µg/mL
  MIC90: > 2 µg/mL
P. mirabilis
  MIC50: > 2 µg/mL
  MIC90: > 2 µg/mL
